Results reported in ChEMBL document CHEMBL1143556 (J Med Chem, 2005).

Assays:
[1] = biological target: T1, Peroxisome proliferator-activated receptor gamma (Homo sapiens, UniProt P37231)
T1 sequence (P37231 whole entry): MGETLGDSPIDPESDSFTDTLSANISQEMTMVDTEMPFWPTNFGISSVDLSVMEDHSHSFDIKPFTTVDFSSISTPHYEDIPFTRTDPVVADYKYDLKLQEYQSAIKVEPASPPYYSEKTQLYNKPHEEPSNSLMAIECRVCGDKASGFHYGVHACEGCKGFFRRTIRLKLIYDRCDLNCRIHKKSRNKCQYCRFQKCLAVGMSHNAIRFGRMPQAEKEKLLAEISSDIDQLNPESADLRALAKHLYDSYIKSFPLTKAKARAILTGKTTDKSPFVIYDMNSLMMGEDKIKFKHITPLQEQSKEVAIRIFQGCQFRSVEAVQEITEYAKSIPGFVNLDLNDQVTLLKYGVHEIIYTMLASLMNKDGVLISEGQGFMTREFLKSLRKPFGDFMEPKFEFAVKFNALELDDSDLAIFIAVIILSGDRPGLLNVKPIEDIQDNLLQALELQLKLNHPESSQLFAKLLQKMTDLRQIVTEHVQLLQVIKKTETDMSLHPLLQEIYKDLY

[2] = biological target: T1, Peroxisome proliferator-activated receptor gamma; assay: Inhibition of human Peroxisome proliferator activated receptor gamma
[3] = biological target: T2, Peroxisome proliferator-activated receptor alpha (Homo sapiens, UniProt Q07869); assay: Effective concentration against human Peroxisome proliferator activated receptor alpha
T2 sequence (Q07869 whole entry): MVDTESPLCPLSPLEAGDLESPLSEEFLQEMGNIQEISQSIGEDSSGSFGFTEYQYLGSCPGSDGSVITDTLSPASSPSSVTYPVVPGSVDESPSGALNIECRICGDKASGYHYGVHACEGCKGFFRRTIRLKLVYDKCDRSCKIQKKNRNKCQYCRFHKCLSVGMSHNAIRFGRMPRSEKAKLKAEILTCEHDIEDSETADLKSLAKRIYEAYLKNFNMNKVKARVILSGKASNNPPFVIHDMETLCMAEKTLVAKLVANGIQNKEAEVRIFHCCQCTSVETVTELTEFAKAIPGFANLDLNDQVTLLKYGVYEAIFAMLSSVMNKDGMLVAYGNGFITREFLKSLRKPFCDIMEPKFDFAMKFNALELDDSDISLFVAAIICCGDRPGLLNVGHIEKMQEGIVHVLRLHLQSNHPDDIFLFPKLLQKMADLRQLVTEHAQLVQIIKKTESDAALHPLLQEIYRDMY

[4] = biological target: T2, Peroxisome proliferator-activated receptor alpha; assay: Inhibition of human Peroxisome proliferator activated receptor alpha
Rattus norvegicus [5] = assay: Clearance was measured in male SD rat after 5 mg/kg intra arterial dosage; n=3
Rattus norvegicus [6] = assay: Time to maximum concentration was measured in male SD rat after 10 mg/kg oral dosage; n=3
Rattus norvegicus [7] = assay: Half life was measured in male SD rat after 5 mg/kg intra arterial dosage; n=3

SMILES	EC50 [1]	IC50 [2]	EC50 [3]	IC50 [4]	CL (mL.min-1.kg-1) (Rattus norvegicus [5])	Tmax (Rattus norvegicus [6])	T1/2 (Rattus norvegicus [7])
CCCCCCCN(CCc1ccc(O[C@@](C)(CC)C(=O)O)cc1)C(=O)Nc1ccc(F)cc1F	425 nM	316 nM	< 20 nM	538 nM	–	–	–
COc1ccc(OC(=O)N(CC(=O)O)Cc2ccc(OCCc3nc(-c4ccccc4)oc3C)cc2)cc1 [MURAGLITAZAR]	–	–	320 nM	250 nM	3	0.4 h	7.3 h
CC(C)(Oc1ccc(C(=O)c2ccc(Cl)cc2)cc1)C(=O)O [FENOFIBRIC ACID]	–	–	> 10000 nM	> 10000 nM	–	–	–
Cc1oc(-c2ccccc2)nc1CCOc1ccc(CN(CC(=O)O)Cc2ccccc2)cc1	1500 nM	4800 nM	20 nM	1400 nM	–	–	–
